# Measurements taken from US5446032A, “Imidazo (4,5-C) pyridine derivatives as PAF antagonists” (British Biotech Pharmaceuticals Limited, priority 1991, dated 1995).
# Molecular target: T1, PAF receptor (human platelet plasma membrane) (Homo sapiens, UniProt P25105)
# T1 construct: Platelet concentrates are obtained from a hospital blood bank; from tissue; host or cells: human platelets (concentrates from a hospital blood bank), lysed by freeze-thaw; membrane fraction
# Assay: Inhibition of [3H]-PAF receptor binding to human platelet plasma membrane
# Conditions: [3H]-PAF 0.5 nM; 100 μg membrane fraction; 0° C.; 1 hour incubation; pH 7.0
# Experimental: Compounds of general formula I inhibit PAF-induced functions in both the cellular and tissue levels by changing the PAF binding to its specific receptor site. The ability of compounds of general formula I to inhibit the binding of PAF to its specific receptor binding site on human platelet plasma membranes was measured according to Example 24.
# Inhibition of [^3 H]-PAF Receptor Binding
# The inhibition of [^3 H]-PAF binding to human platelet plasma membrane by compounds of general formula I is determined by isotopic labelling and filtration techniques. Platelet concentrates are obtained from a hospital blood bank. These platelet concentrates (500-2500 ml.) are centrifuged at 800 rpm for 10 minutes in a SORVALL RC3B centrifuge to remove the red blood cells present. (The word SORVALL is a trade mark.) The supernatant is subsequently centrifuged at 3,000 rpm in a SORVALL RC3B centrifuge to pellet the platelets present. The platelet rich pellets are resuspended in a minimum volume of buffer (150 mM NaCl, 10 mM Tris, 2 mM EDTA, pH 7.5) and layered onto Ficoll-Paque gradients, 9 ml platelet concentrate to 2 ml Ficoll, and centrifuged at 1,900 rpm for 15 minutes in a SORVALL RT6000 centrifuge. This step removes the residual red blood cells and other nonspecific material such as lymphocytes from the preparation. The platelets which form a band between the plasma and the Ficoll are removed, resuspended in the above buffer and centrifuged at 3,000 rpm for 10 minutes in a SORVALL RT6000 centrifuge. The pelleted platelets are resuspended in buffer (10 mM Tris, 5 mM MgCl2, 2 mM EDTA, pH 7.0), snap freezed in liquid N2 and allowed to thaw slowly at room temperature in order to lyse the platelets. The latter step is repeated at least 3 times to ensure proper lysis. The lysed platelets are centrifuged at 3,000 rpm for 10 minutes in a SORVALL RT6000 centrifuge and resuspended in buffer. The latter step is repeated twice in order to remove any cytoplasmic proteins which may hydrolyse the platelet activating factor (PAF) receptor. The prepared platelet membranes may be stored at -70° C. After thawing the prepared membranes are centrifuged in a SORVALL RT6000 at 3,000 rpm for 10 minutes and resuspended in assay buffer.
# The assay is conducted by preparing a series of Tris-buffered solutions of the selected antagonist of predetermined concentrations. Each of these solutions contained [^3 H]-PAF (0.5 nM; 1-O-[^3 H]octadecyl-2-acetyl-sn-glycero-3-phosphoryl choline with a specific activity of 132 Ci/mmol), […], a known amount of the test antagonist, and a sufficient amount of Tris-buffer solution (10 mM Tris, 5 mM MgC2, pH 7.0, 0.25% BSA) to make the final volume 1 ml. Incubation is initiated by the addition of 100 μg of the isolated membrane fraction to each of the above solutions at 0° C. Two control samples, one (C1) which contained all the ingredients described above except the antagonist and the other (C2) contains C1 plus a 1000-fold excess of unlabelled PAF, are also prepared and incubated simultaneously with the test samples. After 1 hour incubation, each solution is filtered rapidly under vacuo through a WHATMAN GF/C glass fibre filter in order to separate unbound PAF from bound PAF. (The word WHATMAN is a trade mark.) The residue in each case is rapidly washed 4 times with 5 ml cold (4° C.) Tris-buffer solution. Each washed residue is dried under vacuum on a sampling manifold and placed into vials containing 20 ml of OPTIPHASE MP scintillation fluid and the radioactivity counted in a liquid scintillation counter. (The word OPTIPHASE is a trade mark.) Defining the counts for total binding with antagonist from a test sample as "TBA"; the counts for total binding from the control sample C1 as "TB"; and the counts for nonspecific binding from the control sample C2 as "NSB"; the percent inhibition of each test antagonist can be determined by the following equation:
# %Inhibition=[(TB-TBA)/SB]×100
# where the specific binding SB=TB-NSB […]
# T1 sequence (P25105 whole entry): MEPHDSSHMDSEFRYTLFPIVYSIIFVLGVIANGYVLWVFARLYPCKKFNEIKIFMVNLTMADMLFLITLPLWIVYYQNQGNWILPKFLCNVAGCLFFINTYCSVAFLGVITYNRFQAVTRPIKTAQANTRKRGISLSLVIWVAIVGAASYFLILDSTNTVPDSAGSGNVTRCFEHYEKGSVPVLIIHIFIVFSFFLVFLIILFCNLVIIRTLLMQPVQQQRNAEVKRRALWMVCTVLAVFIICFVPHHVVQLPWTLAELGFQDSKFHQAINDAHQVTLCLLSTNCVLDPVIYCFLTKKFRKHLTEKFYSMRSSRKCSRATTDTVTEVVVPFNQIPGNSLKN
row,SMILES,IC50 [nM]
1,"CCOC(=O)[C@H](CC(C)C)N(C)S(=O)(=O)c1ccc(Cn2ccc3ncnc-3c2)cc1 [Example 1, N-Methyl-N-4-(5H-imidazo[4,5-c]pyridylmethyl)phenylsulphonyl-L-leucine ethyl ester]",5
2,"COC(C)C(C(C)C)N(C)S(=O)(=O)c1ccc(Cn2ccc3nc(C)nc-3c2)cc1 (stereo not shown) [Example 23, N-Methyl-N-4-(5H-2-methylimidazo[4,5-c]pyridylmethyl)phenylsulphonyl-2-methoxy-3-amino-4-methylpentane]",15
3,"CCOC(=O)[C@H](CC(C)C)N(CC(=O)OC(C)(C)C)S(=O)(=O)c1ccc(Cn2ccc3nc(C)nc-3c2)cc1 [Example 8, N-t-Butyloxycarbonylmethyl-N-4-(5H-2-methylimidazo[4,5-c]pyridylmethyl)phenylsulphonyl-L-leucine ethyl ester]",15
4,"CCOC(=O)CN([C@@H](CC(C)C)C(=O)OCC)S(=O)(=O)c1ccc(Cn2ccc3nc(C)nc-3c2)cc1 [Example 6, N-Ethoxycarbonylmethyl-N-4-(5H-2-methylimidazo[4,5-c]pyridylmethyl)phenylsulphonyl-L-leucine ethyl ester]",10
5,"Cc1nc2ccn(Cc3ccc(S(=O)(=O)N(C)[C@H](CO[Si](c4ccccc4)(c4ccccc4)C(C)(C)C)CC(C)C)cc3)cc-2n1 [Example 21, N-Methyl-N-4-(5H-2-methylimidazo[4,5-c]pyridylmethyl)phenylsulphonyl-L-leucinyl t-butyldiphenylsilyl ether]",20
6,"C=CCOC(=O)[C@H]([C@@H](C)CC)N(C)S(=O)(=O)c1ccc(Cn2ccc3nc(C)nc-3c2)cc1 [Example 4, N-Methyl-N-4-(5H-2-methylimidazo[4,5-c]pyridylmethyl)phenylsulphonyl-L-isoleucine allyl ester]",10
7,"CCOC(=O)[C@H](CC(C)C)N(C)S(=O)(=O)c1ccc(Cn2ccc3nc(C)nc-3c2)c(Cl)c1 [Example 5, N-Methyl-N-4-(5H-2-methylimidazo[4,5-c]pyridylmethyl)-3-chlorophenylsulphonyl-L-leucine ethyl ester]",2
